Source: patent publication US20010051591A1, “Safening crops from the phytotoxic effects of herbicidally active N-phosphonomethyl-glycines” (priority 2000, published 2001)

Experiments:
Type in all cases: in vivo
Corn = experiment: Example 2: phytotoxic injury to crops, tank mix spray; details: glyphosate 0.8 kg/ha, clomazone 0 kg/ha; 14 days after treatment
Description: (§1) Glyphosate, tested as ROUNDUP® Ultra Herbicide (termed in Examples 1-3 as “Herbicidal Compound”), and COMMAND® 3 ME Herbicide comprised of at least one plant-safening, inorganic, water-soluble salt (calcium chloride), termed in Examples 1 and 2 as “Safening Composition A”, were tested as water solutions on two soybean varieties (Asgrow 2704 and Asgrow […]). The aforementioned solutions were sprayed in admixture as a tank mix onto flats of 12-day-old soybean plants arranged in a randomized, block design. There were four replicates for each rate of application. The soybean plants were evaluated at 21 days after treatment for percent phytotoxic injury by comparison to tests conducted on untreated plants and plants treated with Herbicidal Compound only. The rate of application clomazone for the Safening Composition A, and the rate of application of glyphosate for the Herbicidal Compound are expressed below in kg/ha.
(§2) As set forth in Example 2, the Herbicidal Compound and Safening Composition A were tested in the same manner as described in Example 1. The aforementioned Herbicidal Compound and Safening Composition A were sprayed as a tank mix onto 10-14 day old crop and weed species. The tests were evaluated at 14 days after treatment for percent injury by comparison to tests conducted on untreated plants and weeds, and plants and weeds treated with Herbicidal Compound only.

Rape = experiment: as above; details: glyphosate 0.8 kg/ha, clomazone 0 kg/ha; 14 days after treatment
Description: as §1, §2

Tomato = experiment: as above; details: clomazone 0 kg/ha, 14 days after treatment
Description: as §1, §2

Cucumber = experiment: as above; details: glyphosate 0.4 kg/ha, clomazone 0 kg/ha; 14 days after treatment
Description: as §1, §2

Rice = experiment: as above; details: glyphosate 0.4 kg/ha, clomazone 0 kg/ha; 14 days after treatment
Description: as §1, §2

Sorghum = experiment: as above; details: clomazone 0 kg/ha, 14 days after treatment
Description: as §1, §2

Pinto Bean = experiment: as above; details: glyphosate 0.4 kg/ha, clomazone 0 kg/ha; 14 days after treatment
Description: as §1, §2

two soybean varieties = experiment: Example 1: average phytotoxic injury to the two soybean varieties; details: without Safening Composition A
Description: as §1
For example, at the 0.2, 0.4, and 0.8 kg/ha rate of application of Herbicidal Compound, the average injury to the two soybean varieties is about 18%, 46%, and 70%, respectively.

soybean Variety A3234 = experiment: Example 1: phytotoxic injury to soybean, tank mix sprayed on 12-day-old plants; details: clomazone 0 kg/ha, 21 days after treatment
Description: (§3) The aforementioned solutions were sprayed in admixture as a tank mix onto flats of 12-day-old soybean plants arranged in a randomized, block design. There were four replicates for each rate of application. The soybean plants were evaluated at 21 days after treatment for percent phytotoxic injury by comparison to tests conducted on untreated plants and plants treated with Herbicidal Compound only. The rate of application clomazone for the Safening Composition A, and the rate of application of glyphosate for the Herbicidal Compound are expressed below in kg/ha.

[1] = tested on: soybean variety Asgrow 2704; experiment: as above; details: clomazone 0 kg/ha, 21 days after treatment
Description: as §3

SMILES: O=C(O)CNCP(=O)(O)O [Herbicidal Compound, Glyphosate]
- Percent Phytotoxic Injury Corn (Corn): 90%
- Percent Phytotoxic Injury Rape (Rape): 84%
- Percent Phytotoxic Injury Tomato (Tomato; glyphosate 0.2 kg/ha): 95%
- Percent Phytotoxic Injury Tomato (Tomato; glyphosate 0.4 kg/ha): 100%
- Percent Phytotoxic Injury Cucumber (Cucumber): 77%
- Percent Phytotoxic Injury Rice (Rice): 65%
- Percent Phytotoxic Injury Sorghum (Sorghum; glyphosate 0.4 kg/ha): 76%
- Percent Phytotoxic Injury Sorghum (Sorghum; glyphosate 0.8 kg/ha): 100%
- Percent Phytotoxic Injury Pinto Bean (Pinto Bean): 63%
- average injury to the two soybean varieties (two soybean varieties; glyphosate 0.2 kg/ha): about 18%
- average injury to the two soybean varieties (two soybean varieties; glyphosate 0.4 kg/ha): ~46%
- average injury to the two soybean varieties (two soybean varieties; glyphosate 0.8 kg/ha): ~70%
- Percent Phytotoxic Injury To Soybean Variety A3234 (soybean Variety A3234; glyphosate 0.2 kg/ha): 22%
- Percent Phytotoxic Injury To Soybean Variety A3234 (soybean Variety A3234; glyphosate 0.4 kg/ha): 54%
- Percent Phytotoxic Injury To Soybean Variety A3234 (soybean Variety A3234; glyphosate 0.8 kg/ha): 81%
- Percent Phytotoxic Injury To Soybean Variety A2704 ([1]; glyphosate 0.2 kg/ha): 14%
- Percent Phytotoxic Injury To Soybean Variety A2704 ([1]; glyphosate 0.4 kg/ha): 38%
- Percent Phytotoxic Injury To Soybean Variety A2704 ([1]; glyphosate 0.8 kg/ha): 60%
